Assays:
[1] = tested on: CYP3A4; test: Hepatocyte CYP induction assay, CYP3A4 gene expression; assay type: in vitro ADME; details: human hepatocytes
Method: Exemplary compounds were tested for ability to induce CYP3A4 and/or CYP1A2 in hepatocytes. Procedures and results are described below.
Cryopreserved human hepatocytes were purchased from BioIVT (Baltimore, MD, USA), and they were stored in liquid nitrogen before using. The detailed information of hepatocytes is as follows:
Fresh dosing solutions of test compounds, and Rifampicin were prepared in the incubation medium on the day of dosing.
Cryopreserved hepatocytes were thawed and counted to determine yield, viability was measured. Hepatocytes at the concentrations of 0.7 million/mL were transferred to collagen-coated 96-well plates for attachment (0.1 mL viable cells/well). After allowing 4 to 5 hours for attachment of cells, the plating medium was replaced with Incubation Medium containing 2% (v/v) Matrigel™ (sandwich medium) and the hepatocytes were incubated until use.
All incubations were conducted at 37° C., 5% CO2, and saturated humidity.
The sandwich medium was removed and the hepatocytes were treated with incubation solutions containing test articles in vehicle (0.1% DMSO), or positive control for 24 hours after the cultures were established. The incubation solution was aspirated and replaced with incubation solution containing the same concentrations of test articles, vehicle, or positive controls for an additional 24 hours. The total treatment period was 48 hours. Triplicate were used for each concentration of test compound and positive control.
After treatment period of 48 hours, the incubation solution was aspirated. Hepatocytes were washed once with pre-warmed HBSS and incubated with 140 μL of RLT (lysis buffer from Rneasy 96 Kit) supplemented with 1% β-mercaptoethanol. Plates were then stored at ≤−60° C. freezer until RNA analysis.
Before RNA extraction, the frozen plate was thawed and cell lysates were transferred to 96-well plates. RNA isolation was performed using QIAcube HT System. RNA concentration was measured with NanoDrop ND-2000 spectrophotometer. The purity of RNA preparation was calculated by the ratio of the OD260 nm/OD280 nm and the acceptable range is between 1.8 and 2.2. Reverse transcription was performed to obtain cDNA. Quantification of the selective genes by real time quantitative Polymerase Chain Reaction (qPCR) was performed with TaqMan universal PCR Master Mix on the BIO-RAD CFX 384 Touch Real Time PCR System. The following setting were used: 50° C. for 2 minutes, 95° C. for 10 minutes, 40 cycles of 95° C. for 15 seconds and 60° C. for 1 minute. 18S rRNA was used as the internal standard.
To account for variation in RNA yields and reverse transcription polymerase chain reaction (RT-PCR), the gene of interest in all samples was normalized to an internal control gene (18S ribosomal RNA) (Cttarget gene−Ct18S=ΔCt).
The relative quantitation or change in mRNA level of selected genes induced by each test compound was expressed in relation to the vehicle control sample (Δctcompound−ΔCtvehicle=ΔΔCt). Fold changes in gene expression were determined by taking 2 to the power of this value (2^−ΔΔt).
% of positive control [(fold change in treated sample)−1]/[(fold change in positive control)−1]×100

[2] = target: T1, CSF-1R (Homo sapiens, UniProt P07333); test: HTRF biochemical assay, CSF-1R; details: Table 4
T1 construct: purchased Invitrogen PV3249 (lot 662393N)
In short: (§1)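 Kinase phosphorylation of a FAM-labelled peptide substrate, with ATP and Mn^2+ cofactors, run for 3 h at 25 °C, with optional enzyme–compound pre-incubation. Reactions were quenched with EDTA, and phosphopeptide was detected by anti-phosphotyrosine antibody HTRF.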

[3] = target: T2, PDGFRα (Homo sapiens, UniProt P16234); test: HTRF biochemical assay, PDGFRα; details: Table 4, read-out: PDFGRα Biochemical IC50 avg
T2 construct: purchased Millipore 14-467 (lot 26321_ACTI)
In short: as §1

[4] = target: T3, CSF1R-NanoLuc fusion in HEK293 cells (Homo sapiens, UniProt P07333); test: NanoBRET cellular target engagement assay, CSF-1R; assay type: cell-based
T3 construct: expressed in transfected cells; host or cells: HEK293, transient transfection
Method: (§2) Exemplary compounds were tested for their ability to inhibit target engagement of KIT or CSF-1R kinases through competitive displacement of a Nano-Luc luciferase kinase fusion in HEK293 cells.
(§3) The NanoBRET target engagement assay employs an energy transfer technique designed to measure molecular proximity in living cells. The assay measures the apparent affinity of test compounds by competitive displacement of the NanoBRET tracer, reversibly bound to a NanoLuc luciferase-kinase fusion construct in cells. The intracellular binding affinity and selectivity are physiologically relevant and fundamental to the pharmacological mechanism of the compounds. While biochemical and biophysical assays identify the kinase inhibitors in vitro, the NanoBRET target engagement assay serves to determine the direct interaction of the compounds binding to target kinases in cells.
(§4) HEK293 cells transiently expressing NanoLuc-DDR1 fusion vector were seeded into 384-well plates and treated with the Tracer K-4 and compound for 1 hour. The BRET signal was measured on an EnVision 2104 multilabel microplate reader. NanoBRET Target Engagement Assay in HEK293 cells transiently transfected with KIT and CSF1R-NanoLuc Fusion Vector. HEK293 cells were transfected with […] KIT or CSF1R-NanoLuc Fusion Vector and […] carrier DNA. The transfected cells were treated with test compounds (starting at 10 μM, 10-dose with 3-fold dilution) and reference compound (desatinib) (starting at 1 μM, 10-dose with 3-fold dilution). Percent inhibition due to compound activity was calculated to determine IC50.

[5] = target: T4, KIT-NanoLuc fusion in HEK293 cells (Homo sapiens, UniProt P10721); test: NanoBRET cellular target engagement assay, KIT; assay type: cell-based
T4 construct: expressed in transfected cells; host or cells: HEK293, transient transfection
Method: as §2, §3, §4

T3 sequence (P07333 20-972): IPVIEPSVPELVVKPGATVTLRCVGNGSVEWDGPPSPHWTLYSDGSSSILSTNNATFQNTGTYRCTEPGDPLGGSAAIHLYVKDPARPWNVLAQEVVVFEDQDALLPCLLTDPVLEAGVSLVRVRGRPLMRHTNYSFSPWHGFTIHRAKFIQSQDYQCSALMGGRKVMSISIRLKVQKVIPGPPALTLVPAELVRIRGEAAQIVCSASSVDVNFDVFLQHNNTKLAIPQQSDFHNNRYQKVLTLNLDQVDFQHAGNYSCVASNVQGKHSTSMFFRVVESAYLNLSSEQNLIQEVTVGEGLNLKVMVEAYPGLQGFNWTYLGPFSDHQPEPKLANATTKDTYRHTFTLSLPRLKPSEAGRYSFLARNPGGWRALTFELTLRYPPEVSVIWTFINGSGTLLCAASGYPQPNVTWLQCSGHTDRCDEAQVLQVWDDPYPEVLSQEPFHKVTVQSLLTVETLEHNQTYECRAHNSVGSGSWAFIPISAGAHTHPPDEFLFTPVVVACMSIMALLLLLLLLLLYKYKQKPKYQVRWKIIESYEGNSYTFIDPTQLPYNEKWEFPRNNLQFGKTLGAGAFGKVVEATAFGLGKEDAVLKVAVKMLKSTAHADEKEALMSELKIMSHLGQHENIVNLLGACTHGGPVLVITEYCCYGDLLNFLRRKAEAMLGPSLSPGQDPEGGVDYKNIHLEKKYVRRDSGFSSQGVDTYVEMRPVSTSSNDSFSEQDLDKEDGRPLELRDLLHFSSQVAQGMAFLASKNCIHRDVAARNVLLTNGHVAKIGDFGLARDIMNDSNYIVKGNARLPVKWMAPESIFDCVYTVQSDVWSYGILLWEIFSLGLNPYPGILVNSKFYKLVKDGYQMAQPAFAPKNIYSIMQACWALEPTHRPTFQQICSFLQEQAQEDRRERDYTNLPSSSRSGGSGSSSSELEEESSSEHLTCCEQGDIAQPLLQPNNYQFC
T1 sequence (P07333 20-972): as above
T2 sequence (P16234 24-1089): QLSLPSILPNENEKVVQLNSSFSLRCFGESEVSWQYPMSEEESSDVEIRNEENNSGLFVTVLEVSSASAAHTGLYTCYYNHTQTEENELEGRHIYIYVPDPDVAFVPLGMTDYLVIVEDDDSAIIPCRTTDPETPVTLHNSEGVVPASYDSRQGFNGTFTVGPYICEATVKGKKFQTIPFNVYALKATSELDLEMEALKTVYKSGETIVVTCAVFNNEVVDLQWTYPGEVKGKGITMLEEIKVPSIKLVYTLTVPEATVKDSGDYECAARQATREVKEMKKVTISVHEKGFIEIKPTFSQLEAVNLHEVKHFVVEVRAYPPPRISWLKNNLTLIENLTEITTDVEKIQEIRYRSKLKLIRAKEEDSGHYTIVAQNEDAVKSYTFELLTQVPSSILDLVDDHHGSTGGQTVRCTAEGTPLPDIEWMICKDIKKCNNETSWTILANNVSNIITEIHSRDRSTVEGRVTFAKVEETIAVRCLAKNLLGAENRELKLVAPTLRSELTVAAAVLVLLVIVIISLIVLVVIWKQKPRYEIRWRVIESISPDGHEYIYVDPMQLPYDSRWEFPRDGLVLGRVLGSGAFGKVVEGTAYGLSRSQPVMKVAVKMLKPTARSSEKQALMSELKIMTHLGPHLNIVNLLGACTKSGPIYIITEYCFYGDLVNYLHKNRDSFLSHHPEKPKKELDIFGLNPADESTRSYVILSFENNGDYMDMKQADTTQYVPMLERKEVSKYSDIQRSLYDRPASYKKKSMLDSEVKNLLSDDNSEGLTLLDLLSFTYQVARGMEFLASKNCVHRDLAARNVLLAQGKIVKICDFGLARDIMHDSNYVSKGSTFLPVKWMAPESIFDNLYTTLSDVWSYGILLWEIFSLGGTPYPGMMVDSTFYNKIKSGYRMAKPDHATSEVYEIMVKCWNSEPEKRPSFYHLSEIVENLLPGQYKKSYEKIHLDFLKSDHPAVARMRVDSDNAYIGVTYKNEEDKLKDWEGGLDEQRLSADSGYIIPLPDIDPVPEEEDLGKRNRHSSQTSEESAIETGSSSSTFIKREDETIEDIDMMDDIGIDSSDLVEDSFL
T4 sequence (P10721 26-976): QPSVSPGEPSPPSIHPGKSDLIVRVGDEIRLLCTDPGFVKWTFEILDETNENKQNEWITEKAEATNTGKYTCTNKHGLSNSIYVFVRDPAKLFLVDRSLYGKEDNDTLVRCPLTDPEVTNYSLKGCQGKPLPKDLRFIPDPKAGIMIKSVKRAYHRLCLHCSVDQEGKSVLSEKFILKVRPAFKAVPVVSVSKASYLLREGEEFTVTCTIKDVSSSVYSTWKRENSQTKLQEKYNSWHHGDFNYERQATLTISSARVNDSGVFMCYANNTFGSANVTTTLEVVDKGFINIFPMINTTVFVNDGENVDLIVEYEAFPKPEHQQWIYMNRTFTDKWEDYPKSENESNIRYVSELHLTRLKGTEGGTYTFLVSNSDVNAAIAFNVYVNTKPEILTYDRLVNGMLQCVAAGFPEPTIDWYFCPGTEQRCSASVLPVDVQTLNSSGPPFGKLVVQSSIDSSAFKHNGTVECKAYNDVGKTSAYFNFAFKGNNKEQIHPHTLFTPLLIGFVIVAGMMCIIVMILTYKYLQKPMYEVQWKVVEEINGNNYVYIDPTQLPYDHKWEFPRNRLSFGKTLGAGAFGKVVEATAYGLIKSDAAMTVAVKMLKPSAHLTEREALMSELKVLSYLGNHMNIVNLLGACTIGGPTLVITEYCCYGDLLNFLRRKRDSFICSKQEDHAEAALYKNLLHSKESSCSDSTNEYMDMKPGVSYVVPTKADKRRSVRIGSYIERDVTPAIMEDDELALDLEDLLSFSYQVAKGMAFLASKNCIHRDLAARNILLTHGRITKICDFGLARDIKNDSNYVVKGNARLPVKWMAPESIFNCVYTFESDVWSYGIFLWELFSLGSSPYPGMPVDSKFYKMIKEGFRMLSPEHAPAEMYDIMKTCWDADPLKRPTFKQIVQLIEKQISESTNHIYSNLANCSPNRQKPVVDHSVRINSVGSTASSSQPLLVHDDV

Row | Compound | CYP 3A4 induction mRNA: Mean fold at 10 μM ([1]; donor four) | IC50 [2] | IC50 [3] | further results
1 | Cc1ccc(-c2noc([C@H]3CCC(=O)N3)n2)cc1NC(=O)c1cnc2ccccn12 (racemic) [Compound I-327] | + (induction fold of less than or equal to 2-fold) |  |  | CYP 3A4 induction mRNA: Mean fold at 10 μM ([1]; donor five): + (induction fold of less than or equal to 2-fold); CYP 3A4 induction mRNA: Mean fold at 10 μM ([1]; donor three): + (induction fold of less than or equal to 2-fold)
2 | Cc1ccc(-c2noc(CC(C)O)n2)cc1NC(=O)c1cnc2ccccn12 (racemic) [Compound I-363] | + (induction fold of less than or equal to 2-fold) |  |  | CYP 3A4 induction mRNA: Mean fold at 10 μM ([1]; donor five): + (induction fold of less than or equal to 2-fold); CYP 3A4 induction mRNA: Mean fold at 10 μM ([1]; donor three): + (induction fold of less than or equal to 2-fold)
3 | Cc1ccc(-c2noc(C3CCN3)n2)cc1NC(=O)c1cnc2ccccn12 (racemic) [Compound I-394] | + (induction fold of less than or equal to 2-fold) |  |  | CYP 3A4 induction mRNA: Mean fold at 10 μM ([1]; donor five): + (induction fold of less than or equal to 2-fold); CYP 3A4 induction mRNA: Mean fold at 10 μM ([1]; donor three): + (induction fold of less than or equal to 2-fold)
4 | COc1ccn2c(C(=O)Nc3cc(-c4noc(CC(O)C(F)F)n4)ccc3C)cnc2c1 (single isomer, unassigned) [Compound I-76] |  | ≤ 50 nM | 50 to 500 nM | 
5 | Cc1ccc(-c2noc([C@H]3C[C@@H]3F)n2)cc1NC(=O)c1cnc2cc(COCC(C)(C)O)ccn12 [Compound I-71, N-[5-[5-[(1R,2S)-2-fluorocyclopropyl]-1,2,4-oxadiazol-3-yl]-2-methyl-phenyl]-7-[(2-hydroxy-2-methyl-propoxy)methyl]imidazo[1,2-a]pyridine-3-carboxamide] | + (induction fold of less than or equal to 2-fold) | ≤ 50 nM | 5000 to 30000 nM | CYP 3A4 induction mRNA: Mean fold at 10 μM ([1]; donor five): + (induction fold of less than or equal to 2-fold); CYP 3A4 induction mRNA: Mean fold at 10 μM ([1]; donor one): + (induction fold of less than or equal to 2-fold); IC50 [4]: > 10000 nM; IC50 [5]: ≤ 100 nM
6 | COCCOCc1ccn2c(C(=O)Nc3cc(-c4noc([C@H]5C[C@@H]5F)n4)ccc3C)cnc2c1 [Compound I-84] | + (induction fold of less than or equal to 2-fold) | ≤ 50 nM | 500 to 5000 nM | 
7 | Cc1ccc(-c2noc([C@H]3C[C@@H]3F)n2)cc1NC(=O)c1cnc2cc(OC(F)(F)F)ccn12 [Compound I-87] | + (induction fold of less than or equal to 2-fold) | 50 to 500 nM | 5000 to 30000 nM | 
8 | Cc1ccc(-c2noc([C@H]3C[C@@H]3F)n2)cc1NC(=O)c1cnc2cc(OC(C)C)ccn12 [Compound I-88] | + (induction fold of less than or equal to 2-fold) | ≤ 50 nM | 500 to 5000 nM | CYP 3A4 induction mRNA: Mean fold at 10 μM ([1]; donor five): + (induction fold of less than or equal to 2-fold); CYP 3A4 induction mRNA: Mean fold at 10 μM ([1]; donor one): + (induction fold of less than or equal to 2-fold); IC50 [4]: > 10000 nM; IC50 [5]: ≤ 100 nM
9 | COc1ccn2c(C(=O)Nc3cc(-c4noc(CC5CC(F)(F)C5)n4)ccc3C)cnc2c1 [Compound I-91] |  | 50 to 500 nM | 50 to 500 nM | 
10 | CCOc1ccn2c(C(=O)Nc3cc(-c4noc([C@H]5C[C@@H]5F)n4)ccc3C)cnc2c1 [Compound I-93] |  | ≤ 50 nM | 50 to 500 nM | 
11 | COc1ccn2c(C(=O)Nc3cc(-c4noc(C[C@H](C)O)n4)ccc3C)cnc2c1 [Compound I-94] |  | ≤ 50 nM | 50 to 500 nM | 
12 | COc1ccn2c(C(=O)Nc3cc(-c4noc(C5CC(F)(F)C5)n4)ccc3C)cnc2c1 [Compound I-96] |  | ≤ 50 nM | 50 to 500 nM | 
13 | Cc1ccc(-c2noc([C@H]3C[C@@H]3F)n2)cc1NC(=O)c1cnn2ccccc12 [Compound I-109] |  | 50 to 500 nM | 500 to 5000 nM | 
14 | Cc1ccc(-c2noc(CC(O)C(F)F)n2)cc1NC(=O)c1cnc2ccccn12 (centres unmarked) [Compound I-114] | + (induction fold of less than or equal to 2-fold) | 50 to 500 nM | 5000 to 30000 nM | CYP 3A4 induction mRNA: Mean fold at 10 μM ([1]; donor five): + (induction fold of less than or equal to 2-fold); CYP 3A4 induction mRNA: Mean fold at 10 μM ([1]; donor three): + (induction fold of less than or equal to 2-fold); IC50 [4]: > 10000 nM; IC50 [5]: ≤ 100 nM
15 | COc1ccc2ncc(C(=O)Nc3cc(-c4noc(C[C@@H](C)O)n4)ccc3C)n2c1 [Compound I-119] | + (induction fold of less than or equal to 2-fold) | 500 to 5000 nM | 500 to 5000 nM | 
16 | Cc1ccc(-c2noc(CC(O)C(F)F)n2)cc1NC(=O)c1cnc2ccccn12 (centres unmarked) [Compound I-122] |  | 50 to 500 nM | 500 to 5000 nM | 
17 | Cc1ccc(-c2noc(C3COC3)n2)cc1NC(=O)c1cnc2ccccn12 [Compound I-138] | + (induction fold of less than or equal to 2-fold) |  |  | 
18 | CCCS(=O)(=O)N1CC(c2nc(-c3ccc(Cl)c(NC(=O)c4cnc5ccccn45)c3)no2)C1 [Compound I-220] | +++ (induction fold of greater than 3-fold to less than or equal to 10-fold) |  |  | 
19 | COC(=O)N1CC(c2nc(-c3ccc(C(F)F)c(NC(=O)c4cnc5ccccn45)c3)no2)C1 [Compound I-225] | +++ (induction fold of greater than 3-fold to less than or equal to 10-fold) | 500 to 5000 nM | 5000 to 30000 nM | 
20 | Cc1ccc(-c2noc([C@H](C)O)n2)cc1NC(=O)c1cnc2ccccn12 [Compound I-271] | + (induction fold of less than or equal to 2-fold) |  |  | 
21 | Cc1ccc(-c2noc([C@H]3C[C@@H]3F)n2)cc1NC(=O)c1cnc2ccc(F)cn12 [Compound I-288] |  | 50 to 500 nM | 500 to 5000 nM | CYP 3A4 induction mRNA: Mean fold at 10 μM ([1]; donor two): ++++ (induction fold of greater than 10-fold)
22 | Cc1ccc(-c2noc(CCO)n2)cc1NC(=O)c1cnc2ccccn12 [Compound I-306] |  | 500 to 5000 nM | 500 to 5000 nM | 
23 | Cc1ccc(-c2noc(CC(C)(C)O)n2)cc1NC(=O)c1cnc2ccccn12 [Compound I-336] |  | 50 to 500 nM | 50 to 500 nM | 
24 | COC(=O)N1CC(c2nc(-c3ccc(Cl)c(NC(=O)c4cnc5ccccn45)c3)no2)C1 [Compound I-339] |  | 500 to 5000 nM | 500 to 5000 nM | 
25 | Cc1ccc(-c2noc([C@H]3CC(F)(F)CN3)n2)cc1NC(=O)c1cnc2ccccn12 [Compound I-359] | + (induction fold of less than or equal to 2-fold) |  |  | 
26 | Cc1ccc(-c2noc(C3CC(OCCF)C3)n2)cc1NC(=O)c1cnc2ccccn12 (centres unmarked) [Compound I-369] |  | 5000 to 30000 nM | 5000 to 30000 nM | 

Reference: patent US20240254119A1 (THIRD HARMONIC BIO, INC., priority 2022, published 2024)
